Experimental data from ChEMBL document CHEMBL4257005, “Therapeutically active compounds and their methods of use” (2016).

Legend:
[1] = molecular target: Isocitrate dehydrogenase [NADP] cytoplasmic (Homo sapiens, UniProt O75874); experiment: Inhibition of His-tagged wild type IDH1 (unknown origin)/FLAG-tagged IDH1 R132H mutant heterodimer expressed in Sf9 cells pre-incubated for 1 hr before addition of alpha-KG followed by diaphorase and resazurin addition and measured after 5 mins in presence of NADPH and 30 uM NADP ny fluorescence spectrometry
Sequence of Isocitrate dehydrogenase [NADP] cytoplasmic (Homo sapiens, UniProt O75874) (O75874 2-414 limits assumed): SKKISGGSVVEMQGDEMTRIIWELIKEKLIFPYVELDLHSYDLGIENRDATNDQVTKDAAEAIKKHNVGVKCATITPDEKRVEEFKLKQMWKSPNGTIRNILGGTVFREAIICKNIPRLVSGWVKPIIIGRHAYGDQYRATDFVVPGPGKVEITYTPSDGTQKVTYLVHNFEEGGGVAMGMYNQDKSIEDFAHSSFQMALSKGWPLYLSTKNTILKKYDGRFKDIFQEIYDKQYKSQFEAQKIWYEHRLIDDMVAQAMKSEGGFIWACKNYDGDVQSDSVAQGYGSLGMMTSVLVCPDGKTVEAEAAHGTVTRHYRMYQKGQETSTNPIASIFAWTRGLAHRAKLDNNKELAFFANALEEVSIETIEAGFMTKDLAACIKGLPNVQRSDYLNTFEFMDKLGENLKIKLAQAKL

[2] = molecular target: Isocitrate dehydrogenase [NADP] cytoplasmic (Homo sapiens, UniProt O75874, R132C); experiment: Inhibition of DH1 R132C mutant homodimer (unknown origin) expressed in Sf9 cells pre-incubated for 1 hr before addition of alpha-KG followed by 90 mins incubation in presence of NADPH, NADP, diaphorase and resazurin by fluorescence spectrometry
Sequence of Isocitrate dehydrogenase [NADP] cytoplasmic (Homo sapiens, UniProt O75874, R132C) (O75874 2-414 R132C limits assumed): as the sequence (O75874 2-414 limits assumed) above, with R131C counted along it

[3] = molecular target: Isocitrate dehydrogenase [NADP] cytoplasmic (Homo sapiens, UniProt O75874, R132H); experiment: Inhibition of DH1 R132H mutant homodimer (unknown origin) expressed in Sf9 cells pre-incubated for 1 hr before addition of alpha-KG followed by 90 mins incubation in presence of NADPH, NADP, diaphorase and resazurin by fluorescence spectrometry
Sequence of Isocitrate dehydrogenase [NADP] cytoplasmic (Homo sapiens, UniProt O75874, R132H) (O75874 2-414 R132H limits assumed): as the sequence (O75874 2-414 limits assumed) above, with R131H counted along it

| IC50 [2] | SMILES | further results |
| --- | --- | --- |
| – | C[C@@H](Nc1nc(N[C@H](C)C2CC2)nc(-c2ccc(Cl)cc2)n1)C1CC1 | IC50 [1]: Not Active |
| Not Active | C[C@@H](Nc1nc(NCC(N)=O)nc(-c2cccc(C(F)(F)F)n2)n1)C1CC1 | – |
| – | COc1ccc(F)c(-c2nc(N[C@H](C)C3CC3)nc(N[C@H](C)C3CC3)n2)c1 | IC50 [3]: Not Active |
| Not Active | C[C@@H](Nc1nc(N[C@H](C)C2CC2)nc(-c2cccc(C(F)(F)F)n2)n1)C(=O)O | – |
| Not Active | C[C@@H](Nc1nc(N[C@H](C)C2CC2)nc(-c2cccc(C(F)(F)F)n2)n1)C(=O)N(C)C | – |
